From patent publication EP4786451A1, “COMPOUND TARGETING INTEGRIN AND USE THEREOF IN RNAI AGENT” (YUN HO BIO CO., LTD, priority 2023, dated 2025) come the findings set out here.

Where “and” joins values, the source holds several entries; their conditions need not be identical. Equal values may be shown once. Read-outs that look alike come from different tables or passages of the source. Where only a bound is given, the exact number is not on record here.

Assay [1] addresses T1, Integrin αvβ6 Receptor (Homo sapiens, UniProt P06756+P18564). The assay can be described thus: HTRF binding activity to integrin αvβ6 receptor (competition with LAP (TGF-beta 1)). The following applies: for Hillslope: fit parameter of the inhibition curve; for Emax: maximum of the inhibition curve, read-out: Max; for IC50: table of 5FAM-labelled compounds. The protocol:
Reagent Preparation: Assay buffer was prepared.
A general note: TR-FRET usually uses a lanthanide donor and a delayed reading to cut background.

In assay [2] the target is T1, Integrin αvβ6 Receptor. The assay is described as above. Conditions: Integrin αvβ6, HTRF; for Hillslope: fit parameter of the inhibition curve; for Max: maximum of the inhibition curve; for Min: minimum of the inhibition curve; for IC50: read-out: IC50. The protocol: Main Experimental Reagents and Consumables
Inhibition rate and fit IC50 was calculated using Excel and XL-Fit respectively, formula as follows: Inhibition % = (Max−Signal)/(Max−Min)*100 [formula] Y = Bottom + (Top−Bottom)/(1+(IC50/X)[…]), [formula] Y and X represent %inhibition and compound concentration respectively

The mark [3] stands for this setting: table of 5FAM-labelled compounds.
The mark [4] stands for this setting: Table 3, several runs, each with Cilengitide and 1 as references.

T1 sequence (P06756 31-992 limits assumed): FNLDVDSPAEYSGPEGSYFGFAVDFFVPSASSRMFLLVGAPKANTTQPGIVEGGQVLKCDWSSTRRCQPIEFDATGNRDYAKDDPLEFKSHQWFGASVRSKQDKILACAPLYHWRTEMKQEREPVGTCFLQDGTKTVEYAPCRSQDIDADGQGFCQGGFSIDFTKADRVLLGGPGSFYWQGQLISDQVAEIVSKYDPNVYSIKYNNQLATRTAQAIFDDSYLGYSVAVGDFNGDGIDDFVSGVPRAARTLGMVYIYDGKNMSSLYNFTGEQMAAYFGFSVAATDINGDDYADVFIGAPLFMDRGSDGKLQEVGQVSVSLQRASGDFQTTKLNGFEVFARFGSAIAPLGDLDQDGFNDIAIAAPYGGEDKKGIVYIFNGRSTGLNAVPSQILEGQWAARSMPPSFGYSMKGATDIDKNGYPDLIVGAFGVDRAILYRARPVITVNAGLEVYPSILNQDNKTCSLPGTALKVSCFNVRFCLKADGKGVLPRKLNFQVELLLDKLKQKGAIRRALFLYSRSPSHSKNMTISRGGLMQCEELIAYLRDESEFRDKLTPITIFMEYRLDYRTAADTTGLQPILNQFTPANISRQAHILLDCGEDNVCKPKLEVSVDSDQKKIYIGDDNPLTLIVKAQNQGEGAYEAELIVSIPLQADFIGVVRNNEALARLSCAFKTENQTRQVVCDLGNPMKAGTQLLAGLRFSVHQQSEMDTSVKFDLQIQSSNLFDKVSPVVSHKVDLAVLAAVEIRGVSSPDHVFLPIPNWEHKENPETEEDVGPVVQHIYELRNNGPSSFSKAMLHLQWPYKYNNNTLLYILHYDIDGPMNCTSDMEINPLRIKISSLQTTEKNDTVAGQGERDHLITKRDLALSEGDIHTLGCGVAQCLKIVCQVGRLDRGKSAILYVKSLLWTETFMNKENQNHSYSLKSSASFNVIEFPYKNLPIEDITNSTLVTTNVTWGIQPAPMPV
T1 sequence (P18564 22-707 limits assumed): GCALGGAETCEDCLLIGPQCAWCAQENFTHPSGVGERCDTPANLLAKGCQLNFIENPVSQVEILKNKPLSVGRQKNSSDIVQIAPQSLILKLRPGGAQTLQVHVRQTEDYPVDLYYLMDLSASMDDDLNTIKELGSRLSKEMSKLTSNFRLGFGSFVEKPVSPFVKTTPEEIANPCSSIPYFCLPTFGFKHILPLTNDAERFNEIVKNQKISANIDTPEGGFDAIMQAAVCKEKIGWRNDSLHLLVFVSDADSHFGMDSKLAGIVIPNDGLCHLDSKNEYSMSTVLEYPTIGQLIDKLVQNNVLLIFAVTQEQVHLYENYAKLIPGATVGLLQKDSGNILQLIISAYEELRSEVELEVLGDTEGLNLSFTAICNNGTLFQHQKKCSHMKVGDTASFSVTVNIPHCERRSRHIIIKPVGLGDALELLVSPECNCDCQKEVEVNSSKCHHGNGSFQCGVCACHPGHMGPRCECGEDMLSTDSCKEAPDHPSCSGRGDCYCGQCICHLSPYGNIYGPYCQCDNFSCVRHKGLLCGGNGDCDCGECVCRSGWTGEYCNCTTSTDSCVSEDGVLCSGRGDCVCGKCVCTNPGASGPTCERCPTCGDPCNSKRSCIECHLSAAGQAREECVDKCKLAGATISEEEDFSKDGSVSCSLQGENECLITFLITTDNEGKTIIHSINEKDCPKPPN

The term IC50 denotes the concentration that inhibits the measured activity by half. As to `COCCN(CCCCc1ccc2c(n1)NCCC2)CC[C@H](Nc1ncnc2cc(OCCOCCOCCOCCOCCn3cc(CNC(=O)c4ccc5c(c4)C(=O)OC54c5ccc(O)cc5Oc5cc(O)ccc54)nn3)ccc12)C(=O)O` [Compound 17-5FAM], on Integrin αvβ6 Receptor [1], the Hillslope came to 1.5, the Emax was determined as 98.9% and the IC50 was determined as 7.99 nM.
At Integrin αvβ6 Receptor [2], `O=C(O)CC(NC(=O)CCCCc1nc2c(cc1CNC(=O)CCOCCOCCOCCOCCNC(=O)c1ccc3c(c1)C(=O)OC31c3ccc(O)cc3Oc3cc(O)ccc31)CCCN2)c1ccc(-c2cccc3ccccc23)cc1` (stereo not shown) [Compound 9-5FAM] registered a Hillslope of 2.0, a Max of 103.1 and a Min of -2.2. For the same compound, at Integrin αvβ6 Receptor [2] (setting [3]), the IC50 worked out at 1.48 nM.
Regarding `Cc1ccnc(NCCC2CCN(CC(=O)N[C@@H](CC(=O)O)c3ccc(-c4ccc(OCCOCCOCCOCCOCCn5cc(CNC(=O)c6ccc7c(c6)C(=O)OC76c7ccc(O)cc7Oc7cc(O)ccc76)nn5)c5ccccc45)cc3)C2=O)c1` (stereo partly shown) [Compound 5-5FAM], on Integrin αvβ6 Receptor [1], the Hillslope turned out to be 1.3 and the Emax was 107%.
Regarding `Cc1nn(-c2cccc(C(CC(=O)O)CN3CC[C@@H](CCc4ccc5c(n4)NCCC5)C3)c2)c(C)c1OCCOCCOCCOCCOCCN=[N+]=[N-]` (stereo partly shown) [Compound 14], the half-maximal inhibitory concentration (IC50) at Integrin αvβ6 Receptor [2] (setting [4]) was 4.9 nM and 2.8 nM.
As for `Cc1ccnc(NCCCC(=O)NCC(=O)N[C@@H](CC(=O)O)c2ccc(-c3ccc(OCCOCCOCCOCCOCCn4cc(COCCOCCNC(=O)CCC(CCC(=O)NCCOCCOCc5cn(CCOCCOCCOCCOCCOc6ccc(-c7ccc([C@H](CC(=O)O)NC(=O)CNC(=O)CCCNc8cc(C)ccn8)cc7)c7ccccc67)nn5)(CCC(=O)NCCOCCOCc5cn(CCOCCOCCOCCOCCOc6ccc(-c7ccc([C@H](CC(=O)O)NC(=O)CNC(=O)CCCNc8cc(C)ccn8)cc7)c7ccccc67)nn5)NC(=O)CCCC(=O)NCCCCCCNC(=O)c5ccc6c(c5)C(=O)OC65c6ccc(O)cc6Oc6cc(O)ccc65)nn4)c4ccccc34)cc2)c1` [Compound 1-3-5FAM], at Integrin αvβ6 Receptor [1], the Hillslope is listed as 1.6, the Emax is 107% and the IC50 was 2.52 nM.
In the case of `[N-]=[N+]=NCCOCCOCCOCCOCCOc1cccc(C(CC(=O)O)CN2CCC(CCc3ccc4c(n3)NCCC4)C2)c1` (stereo not shown) [Compound 18-P2], the 50% inhibitory concentration (IC50) on Integrin αvβ6 Receptor [2] (setting [4]) amounted to 13.9 nM.
Consider `O=C(O)c1ccc2c(c1)C(=O)OC21c2ccc(O)cc2Oc2cc(O)ccc21` [Compound 5FAM], for which, at Integrin αvβ6 Receptor [2], the Hillslope was -11.5, the Max was found to be 6.3 and the Min was -2.8. For the same compound, the half-maximal inhibitory concentration (IC50) on Integrin αvβ6 Receptor [2] (setting [3]) was above 100 nM.
With `Cc1cc(C)n(-c2cccc(C(CC(=O)O)CN3CCC(CCc4nc5c(cc4CNC(=O)CCOCCOCCOCCOCCN=[N+]=[N-])CCCN5)C3)c2)n1` (stereo not shown) [Compound 13], the IC50 on Integrin αvβ6 Receptor [2] (setting [4]) was 2.5 nM and 1.7 nM.
With `CNc1cccc(CCCCC(=O)N[C@@H](CC(=O)O)c2ccc(-c3ccc(OCCOCCOCCOCCOCCn4cc(CNC(=O)c5ccc6c(c5)C(=O)OC65c6ccc(O)cc6Oc6cc(O)ccc65)nn4)c4ccccc34)cc2)n1` [Compound 7-5FAM], on Integrin αvβ6 Receptor [1], the Hillslope is recorded as 1.2, the Emax was found to be 102% and the IC50 came to 3.17 nM.
As for `CC(C)[C@H]1C(=O)N[C@@H](CCCNC(=N)N)C(=O)NCC(=O)N[C@@H](CC(=O)O)C(=O)N[C@H](Cc2ccccc2)C(=O)N1C` [Cilengitide, reference compound], on Integrin αvβ6 Receptor [1], the Hillslope is 1.2 and the Emax was determined as 98.2%.
On to `[N-]=[N+]=NCCOCCOCCOCCOCCOc1ccc(C(CC(=O)O)CN2CCC(CCc3ccc4c(n3)NCCC4)C2)cc1` (stereo not shown) [Compound 20-P2], for which, on Integrin αvβ6 Receptor [2] (setting [4]), the IC50 amounted to 13.4 nM.
Regarding `[N-]=[N+]=NCCOCCOCCOCCOCCOc1ccc(-c2ccc(C(CC(=O)O)CN3CCC(CCc4ccc5c(n4)NCCC5)C3)cc2)cc1` (stereo not shown) [Compound 84], the IC50 on Integrin αvβ6 Receptor [2] (setting [4]) was 3.8 nM.
On Integrin αvβ6 Receptor [2], `[N-]=[N+]=NCCOCCOCCOCCOCCOc1ccc(-c2ccc([C@H](CC(=O)O)NC(=O)CCCCc3ccc4c(n3)NCCC4)cc2)c2ccccc12` [Compound 8] had a Hillslope of 2.5, a Max of 107.0 and a Min of -2.0. The concentration for half-maximal inhibition (IC50) on Integrin αvβ6 Receptor [2] (setting [3]) amounted to 1.37 nM.
Take `Cc1nc(C)n(CCOCCOCCOCCOCCN=[N+]=[N-])c1-c1cccc(C(CC(=O)O)CN2CC[C@@H](CCc3ccc4c(n3)NCCC4)C2)c1` (stereo partly shown) [Compound 15]: the half-maximal inhibitory concentration (IC50) on Integrin αvβ6 Receptor [2] (setting [4]) amounted to 2.5 nM.
`CNc1cccc(CC(=O)NCC(=O)N[C@@H](CC(=O)O)c2ccc(-c3ccc(OCCOCCOCCOCCOCCn4cc(CNC(=O)c5ccc6c(c5)C(=O)OC65c6ccc(O)cc6Oc6cc(O)ccc65)nn4)c4ccccc34)cc2)n1` [Compound 6-5FAM]: on Integrin αvβ6 Receptor [1], the Hillslope is recorded as 1.2, the Emax came to 95.8% and the IC50 was found to be 1.6 nM.
With `[N-]=[N+]=NCCOCCOCCOCCOCCOc1cccc2c(-c3ccc(C(CC(=O)O)CN4CCC(CCc5ccc6c(n5)NCCC6)C4)cc3)cccc12` (stereo not shown) [Compound 71], on Integrin αvβ6 Receptor [2] (setting [4]), the IC50 was found to be 3 nM.
With `[N-]=[N+]=NCCOCCOCCOCCOCCOc1ccc(C(CC(=O)O)CN2CCC(CCc3ccc4c(n3)NCCC4)C2)cc1F` (stereo not shown) [Compound 83], on Integrin αvβ6 Receptor [2] (setting [4]), the IC50 was 3.7 nM.
Still for that read-out and setting: the result for `[N-]=[N+]=NCCOCCOCCOCCOCCOc1cc(C(CC(=O)O)CN2CCC(CCc3ccc4c(n3)NCCC4)C2)ccc1F` (stereo not shown) [Compound 86] reads 4.5 nM.
For `COC(=O)C[C@H](NC(=O)CNC(=O)CCCN(C(=O)OC(C)(C)C)c1cc(C)ccn1)c1ccc(-c2ccc(OCCOCCOCCOCCOCCn3cc(CNC(=O)c4ccc5c(c4)C(=O)OC54c5ccc(O)cc5Oc5cc(O)ccc54)nn3)c3ccccc23)cc1` [Compound 1NG-5FAM], at Integrin αvβ6 Receptor [1], the Hillslope worked out at 2.5, the Emax turned out to be 100% and the 50% inhibitory concentration (IC50) was 41.9 nM.
Turning to `O=C(NCc1cn(CCOCCOCCOCCOCCOCCN(CCCCc2ccc3c(n2)NCCC3)CC[C@H](Nc2ncnc3ccccc23)C(=O)O)nn1)c1ccc2c(c1)C(=O)OC21c2ccc(O)cc2Oc2cc(O)ccc21` [Compound 16-5FAM], at Integrin αvβ6 Receptor [1], the Hillslope worked out at 1.4, the Emax worked out at 101% and the IC50 worked out at 1.77 nM.
As to `Cc1ccnc(NCCCC(=O)N2CCN(C(CC(=O)O)c3ccc(-c4ccc(OCCOCCOCCOCCOCCn5cc(CNC(=O)c6ccc7c(c6)C(=O)OC76c7ccc(O)cc7Oc7cc(O)ccc76)nn5)c5ccccc45)cc3)CC2)c1` (stereo not shown) [Compound 4-5FAM], at Integrin αvβ6 Receptor [1], the Hillslope was found to be 1.1 and the Emax turned out to be 100%.
For the compound `[N-]=[N+]=NCCOCCOCCOCCOCCOc1ccc(F)c(C(CC(=O)O)CN2CCC(CCc3ccc4c(n3)NCCC4)C2)c1` (stereo not shown) [Compound 53], the IC50 on Integrin αvβ6 Receptor [2] (setting [4]) is 3.8 nM.
In the case of `[N-]=[N+]=NCCOCCOCCOCCOCCOc1ccc(-c2ccc(C(CC(=O)O)CN3CCC(CCc4ccc5c(n4)NCCC5)C3)cc2)c2ccccc12` (stereo not shown) [Compound 49], on Integrin αvβ6 Receptor [2] (setting [4]), the half-inhibitory concentration (IC50) came to 3.1 nM.
As to `Cc1ccnc(NCCCC(=O)NCC(=O)N[C@@H](CC(=O)O)c2ccc(-c3ccc(OCCOCCOCCOCCOCCn4cc(CNC(=O)c5ccc6c(c5)C(=O)OC65c6ccc(O)cc6Oc6cc(O)ccc65)nn4)c4ccccc34)cc2)c1` [Compound 1-5FAM], on Integrin αvβ6 Receptor [1], the Emax turned out to be 97% and the IC50 turned out to be 1.41 nM.
For the compound `COCCOc1cc(OCCOCCOCCOCCOCCN=[N+]=[N-])cc(C(CC(=O)O)CN2CCC(CCc3ccc4c(n3)NCCC4)C2)c1` (stereo not shown) [Compound 57], the IC50 on Integrin αvβ6 Receptor [2] (setting [4]) came to 3.3 nM.
Consider `Cc1nn(-c2cccc(C(CC(=O)O)CN3CC[C@@H](CCc4ccc5c(n4)NCCC5)C3)c2)c(C)c1OCCOCCOCCOCCOCCN=[N+]=[N-]` (single isomer, unassigned) [Compound 14-P1], for which the IC50 at Integrin αvβ6 Receptor [2] (setting [4]) was 9.4 nM.
On to `[N-]=[N+]=NCCOCCOCCOCCOCCOc1cc(-c2ccccc2)cc(C(CC(=O)O)CN2CCC(CCc3ccc4c(n3)NCCC4)C2)c1` (stereo not shown) [Compound 59], for which the concentration for half-maximal inhibition (IC50) on Integrin αvβ6 Receptor [2] (setting [4]) worked out at 2.9 nM.
